Measured values reported in patent publication US11739098B2 (BRISTOL-MYERS SQUIBB COMPANY, priority 2017, dated 2023).
pIC50: −log10 of the molar value.

Experiments:
Format in all cases: cell-based
human TLR9 = biological target: T1, human TLR9 (Homo sapiens, UniProt Q9NR96); experiment: TLR9 inhibition reporter assay (HEK-Blue cells, SEAP reporter, ODN2006 stimulation); conditions: HEK-Blue cells overexpressing human TLR9, SEAP reporter, ODN2006 5 nM
T1 construct: host or cells: HEK-Blue cells (HEK293-derived reporter line)
T1 sequence (Q9NR96 26-1032): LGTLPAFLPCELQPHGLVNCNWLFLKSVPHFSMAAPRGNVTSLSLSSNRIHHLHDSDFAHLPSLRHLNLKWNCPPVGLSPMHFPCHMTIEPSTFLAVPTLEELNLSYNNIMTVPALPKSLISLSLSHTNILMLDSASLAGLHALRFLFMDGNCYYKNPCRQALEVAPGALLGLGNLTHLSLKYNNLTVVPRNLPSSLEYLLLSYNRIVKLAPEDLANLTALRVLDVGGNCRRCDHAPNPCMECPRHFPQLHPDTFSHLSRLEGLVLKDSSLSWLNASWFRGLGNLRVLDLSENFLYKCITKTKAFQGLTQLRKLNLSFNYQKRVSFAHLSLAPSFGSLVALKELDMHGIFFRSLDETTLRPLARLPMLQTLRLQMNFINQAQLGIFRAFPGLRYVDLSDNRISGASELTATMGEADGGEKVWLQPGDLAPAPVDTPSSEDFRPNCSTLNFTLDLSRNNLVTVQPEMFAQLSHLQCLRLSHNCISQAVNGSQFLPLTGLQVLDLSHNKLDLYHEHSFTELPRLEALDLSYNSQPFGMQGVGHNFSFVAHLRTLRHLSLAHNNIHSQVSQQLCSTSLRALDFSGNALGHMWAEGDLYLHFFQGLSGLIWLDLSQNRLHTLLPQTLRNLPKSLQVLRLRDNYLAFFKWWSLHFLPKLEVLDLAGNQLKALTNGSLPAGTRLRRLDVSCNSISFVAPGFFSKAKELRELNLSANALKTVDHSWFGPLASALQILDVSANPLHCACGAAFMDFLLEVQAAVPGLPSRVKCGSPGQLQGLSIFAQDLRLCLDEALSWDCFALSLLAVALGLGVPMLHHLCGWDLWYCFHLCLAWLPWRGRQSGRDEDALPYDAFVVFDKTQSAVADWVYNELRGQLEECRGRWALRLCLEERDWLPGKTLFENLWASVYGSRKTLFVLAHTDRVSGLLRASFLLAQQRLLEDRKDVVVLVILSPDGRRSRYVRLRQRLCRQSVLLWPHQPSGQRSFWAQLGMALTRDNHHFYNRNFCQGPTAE
Method in brief: (§1)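 HEK-Blue cells overexpressing the receptor, with NF-κB/AP-1-driven SEAP, were pre-treated 30 min at room temperature with compound (0.05 nM–50 μM), then stimulated with gardiquimod 7.5 μM (TLR7), R848 15.9 μM (TLR8) or ODN2006 5 nM (TLR9). SEAP was read after 22 h at 37 °C as percent inhibition.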

human TLR8 = biological target: T2, human TLR8 (Homo sapiens, UniProt Q9NR97); experiment: TLR8 inhibition reporter assay (HEK-Blue cells, SEAP reporter, R848 stimulation); conditions: HEK-Blue cells overexpressing human TLR8, SEAP reporter, R848 15.9 μM
T2 construct: host or cells: HEK-Blue cells (HEK293-derived reporter line)
T2 sequence (Q9NR97 27-1041): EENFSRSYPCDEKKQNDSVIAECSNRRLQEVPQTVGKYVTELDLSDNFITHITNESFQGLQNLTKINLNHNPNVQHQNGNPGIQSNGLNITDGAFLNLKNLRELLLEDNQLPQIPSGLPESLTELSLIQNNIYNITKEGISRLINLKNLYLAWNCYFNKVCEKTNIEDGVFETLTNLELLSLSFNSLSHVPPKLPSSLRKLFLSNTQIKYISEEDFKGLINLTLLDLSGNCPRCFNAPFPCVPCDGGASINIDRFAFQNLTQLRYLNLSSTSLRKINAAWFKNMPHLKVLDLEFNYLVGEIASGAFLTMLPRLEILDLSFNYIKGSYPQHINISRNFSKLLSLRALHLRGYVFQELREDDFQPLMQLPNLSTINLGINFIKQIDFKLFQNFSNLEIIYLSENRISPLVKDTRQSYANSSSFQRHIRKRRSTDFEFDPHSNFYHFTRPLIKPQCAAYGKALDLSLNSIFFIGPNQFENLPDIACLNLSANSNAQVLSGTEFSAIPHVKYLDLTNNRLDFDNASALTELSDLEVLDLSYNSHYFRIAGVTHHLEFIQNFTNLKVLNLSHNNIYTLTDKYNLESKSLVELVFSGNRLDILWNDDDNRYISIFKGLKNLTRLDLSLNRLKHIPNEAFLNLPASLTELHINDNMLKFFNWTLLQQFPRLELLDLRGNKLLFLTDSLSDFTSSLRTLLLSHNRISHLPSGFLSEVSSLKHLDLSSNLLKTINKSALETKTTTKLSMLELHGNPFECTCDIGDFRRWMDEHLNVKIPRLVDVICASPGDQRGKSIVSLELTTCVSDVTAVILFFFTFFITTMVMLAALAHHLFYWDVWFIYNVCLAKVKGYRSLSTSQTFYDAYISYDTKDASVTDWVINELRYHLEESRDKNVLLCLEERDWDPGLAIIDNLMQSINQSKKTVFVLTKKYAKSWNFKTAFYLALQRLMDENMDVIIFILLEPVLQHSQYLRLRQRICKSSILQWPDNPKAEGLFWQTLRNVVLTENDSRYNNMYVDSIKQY
Method in brief: as §1

human TLR7 = biological target: T3, human TLR7 (Homo sapiens, UniProt Q9NYK1); experiment: TLR7 inhibition reporter assay (HEK-Blue cells, SEAP reporter, gardiquimod stimulation); conditions: HEK-Blue cells overexpressing human TLR7, SEAP reporter, gardiquimod 7.5 μM
T3 construct: host or cells: HEK-Blue cells (HEK293-derived reporter line)
T3 sequence (Q9NYK1 27-1049): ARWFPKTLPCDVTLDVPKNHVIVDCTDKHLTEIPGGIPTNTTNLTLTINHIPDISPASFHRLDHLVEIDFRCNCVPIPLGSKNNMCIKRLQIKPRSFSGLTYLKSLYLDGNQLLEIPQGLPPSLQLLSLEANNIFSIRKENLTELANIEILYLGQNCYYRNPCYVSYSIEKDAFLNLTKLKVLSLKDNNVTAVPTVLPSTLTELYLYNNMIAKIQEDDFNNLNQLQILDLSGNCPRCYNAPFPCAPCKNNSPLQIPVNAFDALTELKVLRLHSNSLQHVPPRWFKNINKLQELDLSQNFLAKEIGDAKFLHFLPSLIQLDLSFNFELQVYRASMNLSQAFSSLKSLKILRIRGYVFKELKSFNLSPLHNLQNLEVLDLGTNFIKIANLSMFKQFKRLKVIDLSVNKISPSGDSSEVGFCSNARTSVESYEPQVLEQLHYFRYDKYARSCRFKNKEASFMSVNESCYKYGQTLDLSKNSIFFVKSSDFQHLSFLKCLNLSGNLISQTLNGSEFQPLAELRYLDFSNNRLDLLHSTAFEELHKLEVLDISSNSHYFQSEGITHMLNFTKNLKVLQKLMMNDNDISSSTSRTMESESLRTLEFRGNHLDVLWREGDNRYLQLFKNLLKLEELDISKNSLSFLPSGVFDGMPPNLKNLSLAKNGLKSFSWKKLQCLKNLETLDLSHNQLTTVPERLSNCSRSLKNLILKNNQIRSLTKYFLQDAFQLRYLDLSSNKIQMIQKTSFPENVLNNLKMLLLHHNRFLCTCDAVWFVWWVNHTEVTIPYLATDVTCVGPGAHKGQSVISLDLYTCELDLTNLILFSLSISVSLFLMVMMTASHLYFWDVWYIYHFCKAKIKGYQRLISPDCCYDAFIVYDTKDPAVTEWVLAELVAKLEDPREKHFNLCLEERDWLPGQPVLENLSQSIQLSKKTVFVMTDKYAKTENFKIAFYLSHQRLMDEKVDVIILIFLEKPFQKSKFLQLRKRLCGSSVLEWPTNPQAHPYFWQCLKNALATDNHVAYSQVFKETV
Method in brief: as §1

SMILES	pIC50 (human TLR9)	pIC50 (human TLR8)	pIC50 (human TLR7)
CC(C)c1c(-c2ccn3nncc3c2)[nH]c2ccc(C3CCNCC3)cc12 [Example 81, 5-(3-isopropyl-5-(piperidin-4-yl)-1H-indol-2-yl)-[1,2,3]triazolo[1,5-a]pyridine]	4.30 to 6.00	6.00 to 7.00	> 7.00
Cc1cn2cc(-c3[nH]c4ccc(C5CCN(Cc6cnn(C)c6)CC5)cc4c3C(C)C)cc(C(F)(F)F)c2n1 [Example 934, 6-(3-isopropyl-5-(1-((1-methyl-1H-pyrazol-4-yl)methyl)piperidin-4-yl)-1H-indol-2-yl)-2-methyl-8-(trifluoromethyl)imidazo[1,2-a]pyridine]	4.30 to 6.00	6.00 to 7.00	> 7.00
CC(C)c1c(-c2ccc3cc[nH]c3c2)[nH]c2ccc(C3CCNCC3)cc12 [Example 65, 3-isopropyl-5-(piperidin-4-yl)-1H,1′H-2,6′-biindole]	4.30 to 6.00	4.30 to 6.00	4.30 to 6.00
CCc1c(-c2cccc3c2cnn3C)[nH]c2ccc(C3CCN(C(=O)CN(C)C)CC3)cc12 [Example 520, 2-(dimethylamino)-1-(4-(3-ethyl-2-(1-methyl-1H-indazol-4-yl)-1H-indol-5-yl)piperidin-1-yl)ethan-1-one]	4.30 to 6.00	< 4.30	< 4.30
Cc1cc2nccn2cc1-c1[nH]c2ccc(C3CCN(CC(=O)N(C)C)CC3)cc2c1C(C)C [Example 431, 2-(4-(3-isopropyl-2-(7-methylimidazo[1,2-a]pyridin-6-yl)-1H-indol-5-yl)piperidin-1-yl)-N,N-dimethylacetamide]	4.30 to 6.00	6.00 to 7.00	> 7.00
COc1cc(-c2[nH]c3ccc(C4CCN(C5COC5)CC4)cc3c2C(C)C)nn2ncnc12 [Example 732, 6-(3-isopropyl-5-(1-(oxetan-3-yl)piperidin-4-yl)-1H-indol-2-yl)-8-methoxy-[1,2,4]triazolo[1,5-b]pyridazine]	4.30 to 6.00	> 7.00	> 7.00
CC(C)c1c(-c2cc(Cl)c3ncccc3c2)[nH]c2ccc(C3CCN(CC(C)(C)O)CC3)cc12 [Example 767, 1-(4-(2-(8-chloroquinolin-6-yl)-3-isopropyl-1H-indol-5-yl)piperidin-1-yl)-2-methylpropan-2-ol]	4.30 to 6.00	> 7.00	> 7.00
Cc1c(-c2[nH]c3ccc(C4CCN(C(=O)CCN5CCOCC5)CC4)cc3c2C(C)C)cn2nnnc2c1C [Example 619, 1-(4-(2-(7,8-dimethyltetrazolo[1,5-a]pyridin-6-yl)-3-isopropyl-1H-indol-5-yl)piperidin-1-yl)-3-morpholinopropan-1-one]	4.30 to 6.00	> 7.00	> 7.00
Cc1cn2cc(-c3[nH]c4ccc(C5CCN(C(=O)C[C@H](C)O)CC5)cc4c3CC(F)F)ccc2n1 [Example 608, (S)-1-(4-(3-(2,2-difluoroethyl)-2-(2-methylimidazo[1,2-a]pyridin-6-yl)-1H-indol-5-yl)piperidin-1-yl)-3-hydroxybutan-1-one]	4.30 to 6.00	< 5.51	6.00 to 7.00
Cc1cc(-c2[nH]c3ccc(C4CCN(C5COC5)CC4)cc3c2C(C)C)c(C)n2nnnc12 [Example 740, 6-(3-isopropyl-5-(1-(oxetan-3-yl)piperidin-4-yl)-1H-indol-2-yl)-5,8-dimethyltetrazolo[1,5-a]pyridine]	4.30 to 6.00	> 7.00	6.00 to 7.00
CC(C)c1c(-c2cnc3nn(C)cc3c2)[nH]c2ccc(C3CCN(CC(C)(C)O)CC3)cc12 [Example 765, 1-(4-(3-isopropyl-2-(2-methyl-2H-pyrazolo[3,4-b]pyridin-5-yl)-1H-indol-5-yl)piperidin-1-yl)-2-methylpropan-2-ol]	4.30 to 6.00	4.30 to 6.00	6.00 to 7.00
CNC(=O)CN1CCC(c2ccc3[nH]c(-c4cc(C)n5nncc5c4)c(C(C)C)c3c2)CC1 [Example 320, 2-(4-(3-isopropyl-2-(7-methyl-[1,2,3]triazolo[1,5-a]pyridin-5-yl)-1H-indol-5-yl)piperidin-1-yl)-N-methylacetamide]	4.30 to 6.00	> 7.00	> 7.00
CC(C)c1c(-c2ccnc3[nH]ncc23)[nH]c2cc(Cl)c(C3CCNCC3)cc12 [Example 252, 4-(6-chloro-3-isopropyl-5-(piperidin-4-yl)-1H-indol-2-yl)-1H-pyrazolo[3,4-b]pyridine]	6.00 to 7.00	> 7.00	> 7.00
CC(C)c1c(-c2ccnc3[nH]ncc23)[nH]c2ccc(C3CCN(Cc4ccc(Oc5ncccn5)cc4)CC3)cc12 [Example 899, 4-(3-isopropyl-5-(1-(4-(pyrimidin-2-yloxy)benzyl)piperidin-4-yl)-1H-indol-2-yl)-1H-pyrazolo[3,4-b]pyridine]	6.00 to 7.00	> 7.00	> 7.00
